Laboratory results reported in PMC2364737, “Phase I and pharmacokinetic (PK) study of MAG-CPT (PNU 166148): a polymeric derivative of camptothecin (CPT)” (British Journal of Cancer, 2004).

What was measured:
[1] = tested on: patients; details: cited from earlier work
[2] = tested on: patients; details: first 3 days of a 28-day cycle; ref Schoemaker et al, 2002; cited from earlier work
[3] = tested on: advanced solid malignancy
From the text: (§1) During the course of the study patients were reviewed in the clinic every week with toxicity assessment, physical examination, FBC, and serum chemistry. Tumour assessment by imaging was repeated every three cycles. Chest X-ray and ECG were repeated at the end of study.

[4] = tested on: patients with advanced solid malignancies; assay: Phase I dose escalation study: safety, dose-limiting toxicity and MTD; type: in vivo, human
Procedure: This was an open-label nonrandomised dose escalation study, conducted in sequential cohorts of patients from two institutions, Aberdeen Royal Infirmary, Aberdeen, and the Beatson Oncology Centre, Glasgow. It was performed under the auspices of the Cancer Research Campaign, London, with sponsorship by Pharmacia and Upjohn, Milan.
All patients had histologically or cytologically proven advanced solid malignancy that was refractory to conventional therapy. […] All patients gave written informed consent according to local Ethics Committee guidelines.
All doses of the investigational agent are expressed as mg of CPT equivalent. The drug was stored at room temperature. The vials were reconstituted with 10 ml normal saline and the dose to be administered was made up in 100 ml saline in a PVC infusion bag.
Thereafter, dose escalation was to continue according to a modified Fibonacci series. The dose escalation scheme could, however, be modified if considered appropriate based on acquired clinical and pharmacokinetic data. The MTD was defined as the highest dose at which at least three of six patients had dose-limiting toxicity (DLT).
Patients were to be retreated at 28-day intervals for up to six cycles. […] Treatment could be delayed for up to 2 weeks to allow resolution of toxicity.
as §1

[5] = tested on: colon, stomach, pancreas, ovary, breast, lung, and melanoma xenograft models; details: preclinical studies; cited from earlier work

| Molecule | responses in early clinical trials ([1]; colorectal cancer, small bowel carcinoma, and melanoma) | unpredictable and severe toxicity in early clinical trials ([1]; ref Gottlieb et al, 1970, Muggia et al, 1972) | antitumour activity [2] | antitumour effect in a patient with renal carcinoma ([3]; 60 mg m^−2, patient had progressive disease with brain metastases) | objective antitumour responses ([3]; all dose levels, 23 patients) | patients with grade 2 dysuria and haematuria during cycle 2 ([4]; 200 mg m^−2) | dose recommended for phase II / further clinical study ([4]; 30-min infusion once every 4 weeks, dose as mg equivalent camptothecin) [mg m^−2] | nausea and vomiting grade 1 ([4]; dose levels 30–120 mg m^−2) | activity in xenograft models [5] |
| --- | --- | --- | --- | --- | --- | --- | --- | --- | --- |
| CC[C@@]1(O)C(=O)OCc2c1cc1n(c2=O)Cc2cc3ccccc3nc2-1 [Camptothecin] | responses to CPT were observed | myelosuppression, gastrointestinal toxicity, and haemorrhagic cystitis |  |  |  |  |  |  |  |
| copolymer of N-(hydroxypropyl) methacrylamide, (20-O-(N-methacryloyl-glycyl-aminohexanoyl-glycyl)) camptothecin and N-(2-hydroxypropyl) methacryloyl glycinamide [MAG-CPT] |  |  | no evidence of antitumour activity | regression of cutaneous metastases was observed | No objective antitumour responses were seen | one of the eight patients | 200 | observed sporadically | active |
